Reference: BigSolDB 2.1

O=P1(O)Oc2ccc3ccccc3c2-c2c(ccc3ccccc23)O1
solubility (mole fraction)
Details | 288.15 K | 293.15 K | 298.15 K | 303.15 K | 308.15 K | 313.15 K | 318.15 K | 323.15 K | 328.15 K | 333.15 K
in ethanol | 0.00444 | 0.00462 | 0.00489 | 0.00511 | 0.00533 | 0.00544 | 0.00573 | 0.00601 | 0.00632 | 0.00664
in ethyl acetate | 0.000286 | 0.000331 | 0.000387 | 0.000434 | 0.000491 | 0.000521 | 0.000555 | 0.000594 | 0.000618 | 0.000645
in isobutanol | 0.0035 | 0.00381 | 0.0041 | 0.0045 | 0.00491 | 0.00531 | 0.00575 | 0.00622 | 0.00672 | 0.00738
in isopropanol | 0.00339 | 0.00354 | 0.0038 | 0.00404 | 0.00445 | 0.00491 | 0.00563 | 0.00656 | 0.00763 | 0.00891
in methanol | 0.00336 | 0.00347 | 0.00373 | 0.00411 | 0.00452 | 0.00486 | 0.0052 | 0.00555 | 0.00607 | 0.00658
in n-butanol | 0.00698 | 0.00709 | 0.0073 | 0.00763 | 0.00802 | 0.00844 | 0.00887 | 0.00932 | 0.00996 | 0.0107
in n-propanol | 0.00484 | 0.0053 | 0.00588 | 0.00652 | 0.00731 | 0.00832 | 0.00942 | 0.0106 | 0.0123 | 0.0142
